Measured values as given in patent US10246451B2, “Propionic acid derivatives and methods of use thereof” (Aviara Pharmaceuticals, Inc., priority 2017, dated 2019).

Target: α4β1 integrin (Homo sapiens, UniProt P05556+P13612)
Assay: a4b1 IC50 (inhibition of α4β1 integrin; no method described)
Format: binding

Chain of α4β1 integrin (P13612 34-1032): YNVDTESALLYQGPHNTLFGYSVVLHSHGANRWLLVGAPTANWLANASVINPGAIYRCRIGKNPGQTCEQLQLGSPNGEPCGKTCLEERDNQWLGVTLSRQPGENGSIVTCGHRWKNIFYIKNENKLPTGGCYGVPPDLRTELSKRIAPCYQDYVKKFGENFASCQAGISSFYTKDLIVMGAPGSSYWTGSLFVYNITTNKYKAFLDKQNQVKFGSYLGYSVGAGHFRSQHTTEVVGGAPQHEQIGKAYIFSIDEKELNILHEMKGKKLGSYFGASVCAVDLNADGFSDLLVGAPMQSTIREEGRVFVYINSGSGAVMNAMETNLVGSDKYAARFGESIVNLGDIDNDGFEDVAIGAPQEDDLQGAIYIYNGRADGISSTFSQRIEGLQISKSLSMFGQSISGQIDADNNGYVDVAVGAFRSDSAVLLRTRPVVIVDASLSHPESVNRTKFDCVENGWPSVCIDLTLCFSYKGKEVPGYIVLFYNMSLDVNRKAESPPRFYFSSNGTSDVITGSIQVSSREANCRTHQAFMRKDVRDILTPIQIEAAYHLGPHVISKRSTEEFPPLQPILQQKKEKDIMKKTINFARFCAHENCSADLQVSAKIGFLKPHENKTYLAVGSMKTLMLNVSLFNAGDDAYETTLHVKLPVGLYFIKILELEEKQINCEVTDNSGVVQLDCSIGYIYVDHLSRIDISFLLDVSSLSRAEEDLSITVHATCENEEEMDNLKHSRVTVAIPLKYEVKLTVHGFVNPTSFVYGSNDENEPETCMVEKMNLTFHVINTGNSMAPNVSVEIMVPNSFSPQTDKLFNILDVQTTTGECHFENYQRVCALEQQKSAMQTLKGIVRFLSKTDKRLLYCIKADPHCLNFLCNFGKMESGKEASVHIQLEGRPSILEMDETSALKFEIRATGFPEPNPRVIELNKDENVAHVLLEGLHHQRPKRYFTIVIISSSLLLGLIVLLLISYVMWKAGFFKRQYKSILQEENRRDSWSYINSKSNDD
Chain of α4β1 integrin (P05556 21-798): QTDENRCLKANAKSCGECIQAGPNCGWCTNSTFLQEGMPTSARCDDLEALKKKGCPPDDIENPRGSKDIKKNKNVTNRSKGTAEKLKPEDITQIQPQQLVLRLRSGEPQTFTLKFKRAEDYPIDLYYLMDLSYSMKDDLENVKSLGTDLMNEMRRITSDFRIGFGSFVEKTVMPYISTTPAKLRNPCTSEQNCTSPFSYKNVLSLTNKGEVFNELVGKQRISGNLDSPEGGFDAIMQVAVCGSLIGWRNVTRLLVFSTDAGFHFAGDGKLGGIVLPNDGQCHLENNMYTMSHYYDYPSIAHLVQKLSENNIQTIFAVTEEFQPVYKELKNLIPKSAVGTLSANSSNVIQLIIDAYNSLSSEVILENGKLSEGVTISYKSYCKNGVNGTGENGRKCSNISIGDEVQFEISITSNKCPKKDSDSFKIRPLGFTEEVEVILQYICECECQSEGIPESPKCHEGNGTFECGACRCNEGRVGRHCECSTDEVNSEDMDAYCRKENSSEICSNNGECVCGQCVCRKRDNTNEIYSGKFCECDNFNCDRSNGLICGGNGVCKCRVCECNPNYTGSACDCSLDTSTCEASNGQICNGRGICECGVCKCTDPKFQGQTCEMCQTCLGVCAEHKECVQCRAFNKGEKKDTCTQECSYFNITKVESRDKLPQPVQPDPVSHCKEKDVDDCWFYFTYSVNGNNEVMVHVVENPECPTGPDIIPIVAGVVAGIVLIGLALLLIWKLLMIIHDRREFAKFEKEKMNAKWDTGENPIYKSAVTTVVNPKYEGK

## COc1cccc(Oc2ccc([C@H](CC(=O)O)NC(=O)Nc3c(O)ccn(C)c3=O)cc2)c1 [Compound 3-73, sodium (S)-3-(4-(3-methoxyphenoxy)phenyl)-3-(3-(1-methyl-4-oxido-2-oxo-1,2-dihydropyridin-3-yl)ureido)propanoate]
  IC50: < 0.2 µM

## Cc1ccc(Oc2ccc([C@H](CC(=O)O)NC(=O)Nc3c(O)ccn(C)c3=O)cc2)cc1 [Compound 3-75, sodium (S)-3-(3-(1-methyl-4-oxido-2-oxo-1,2-dihydropyridin-3-yl)ureido)-3-(4-(p-tolyloxy)phenyl)propanoate]
  IC50: < 0.2 µM

## CCc1ccccc1Cc1cccc([C@H](CC(=O)O)NC(=O)Nc2c(O)ccn(C)c2=O)c1 [Compound 3-80, sodium (S)-3-(3-(2-ethylbenzyl)phenyl)-3-(3-(1-methyl-4-oxido-2-oxo-1,2-dihydro-pyridin-3-yl)ureido)propanoate]
  IC50: < 0.02 µM

## Cc1cn(C)c(=O)c(NC(=O)N[C@@H](CC(=O)O)c2cccc(Cc3ccccc3)c2)c1O [Compound 1-23, sodium (S)-3-(3-benzylphenyl)-3-(3-(1,5-dimethyl-4-oxido-2-oxo-1,2-dihydropyridin-3-yl)ureido)propanoate]
  IC50: < 0.2 µM

## COc1ccccc1Oc1ccc([C@H](CC(=O)O)NC(=O)Nc2c(O)cc(C)n(C)c2=O)cc1 [Compound 2-11, sodium (S)-3-(3-(1,6-dimethyl-4-oxido-2-oxo-1,2-dihydropyridin-3-yl)ureido)-3-(4-(2-methoxyphenoxy)phenyl)propanoate]
  IC50: < 0.2 µM

## COc1ccccc1Oc1ccc([C@H](CC(=O)O)NC(=O)Nc2c(O)ccn(C)c2=O)cc1 [Compound 3-72, sodium (S)-3-(4-(2-methoxyphenoxy)phenyl)-3-(3-(1-methyl-4-oxido-2-oxo-1,2-dihydropyridin-3-yl)ureido)propanoate]
  IC50: < 0.2 µM

## Cc1cccc(Cc2ccc([C@H](CC(=O)O)NC(=O)Nc3c(O)ccn(C)c3=O)cc2)c1 [Compound 3-78, sodium (S)-3-(3-(1-methyl-4-oxido-2-oxo-1,2-dihydropyridin-3-yl)ureido)-3-(4-(3-methylbenzyl)phenyl)propanoate]
  IC50: > 0.2 µM

## Cc1ccc(Cc2cccc([C@H](CC(=O)O)NC(=O)Nc3c(O)ccn(C)c3=O)c2)cc1 [Compound 3-82, sodium (S)-3-(3-(1-methyl-4-oxido-2-oxo-1,2-dihydropyridin-3-yl)ureido)-3-(3-(4-methylbenzyl)phenyl)propanoate]
  IC50: < 0.02 µM

## Cn1ccc(O)c(NC(=O)N[C@@H](CC(=O)O)c2cccc(Oc3ccccc3Cl)c2)c1=O [Compound 3-69, sodium (S)-3-(3-(2-chlorophenoxy)phenyl)-3-(3-(1-methyl-4-oxido-2-oxo-1,2-dihydropyridin-3-yl)ureido)propanoate]
  IC50: < 0.02 µM

## Cn1ccc(O)c(NC(=O)N[C@@H](CC(=O)O)c2cccc(Cc3ccc(C(F)(F)F)cc3)c2)c1=O [Compound 3-90, sodium (S)-3-(3-(1-methyl-4-oxido-2-oxo-1,2-dihydropyridin-3-yl)ureido)-3-(3-(4-(trifluoromethyl)benzyl)phenyl)propanoate]
  IC50: < 0.02 µM

## COc1cccc(Oc2ccc([C@H](CC(=O)O)NC(=O)Nc3c(O)cc(C)n(C)c3=O)cc2)c1 [Compound 2-12, sodium (S)-3-(3-(1,6-dimethyl-4-oxido-2-oxo-1,2-dihydropyridin-3-yl)ureido)-3-(4-(3-methoxyphenoxy)phenyl)propanoate]
  IC50: < 0.2 µM

## Cc1ccc(F)cc1Cc1cccc([C@H](CC(=O)O)NC(=O)Nc2c(O)ccn(C)c2=O)c1 [Compound 3-70, sodium (S)-3-(3-(5-fluoro-2-methylbenzyl)phenyl)-3-(3-(1-methyl-4-oxido-2-oxo-1,2-dihydropyridin-3-yl)ureido)propanoate]
  IC50: < 0.02 µM

## Cn1ccc(O)c(NC(=O)N[C@@H](CC(=O)O)c2ccc(Cc3ccccc3)cc2)c1=O [Compound 3-76, sodium (S)-3-(4-benzylphenyl)-3-(3-(1-methyl-4-oxido-2-oxo-1,2-dihydropyridin-3-yl)ureido)propanoate]
  IC50: < 0.02 µM
